Measurements reported in patent US20250177448A1, “NEW USE OF PEG-PHOSPHOLIPID MOLECULES” (ICOAT MEDICAL AB, priority 2022, published 2025).
“Also recorded” adds a separate entry of the source.

Legend:
blood group B antigen = assay: Anti-blood group B antigen antibody binding to coated human erythrocytes, flow cytometry; assay type: cell-based; settings: blood type B RBCs, 2 mg/ml in PBS, 30 min room temperature
Method: Human erythrocytes were isolated from healthy human donors. They were pre-selected for specific blood types and only individuals exposing blood type B antigens were used. Human blood was drawn from the donors using a vacuum blood collection tube (5 mL, EDTA-2Na treated, TERUMO Co., Tokyo, Japan).
After plasma and buffy coat were removed by centrifugation (15 min, 2500×g, 3 times), the erythrocytes were re-suspended in cold PBS.
This Example was approved by ethical committee of the University of Tokyo (KE17-13). Human red blood cells (RBC) were isolated from whole blood of a type-B donor and suspended in phosphate-buffered saline (PBS). A cell pellet of RBCs (5×10^7 cells) was incubated with PEG-phospholipid (20 μl, 2 mg/ml in PBS) or PBS (50 μl, as control) for 30 min at room temperature (RT, 20-25° C.) with gentle mixing. After wash with PBS by centrifugation (120×g, 4° C., 1 min) twice, Alexa488-labeled anti-blood group B antigen antibody (10 μl, used without dilution, Blood Group B antigen antibody [HEB-29], GeneTex) or PBS (10 μl) was mixed with the treated RBCs for 10 min at RT. After washing with PBS by centrifugation (120×g, 4° C., 1 min), RBC were re-suspended with PBS (1 ml) for flow cytometry measurements. […] Post analysis processing was carried out in FlowJo (BD).

[1] = Vascular and tubular distribution and detachment of PEG-phospholipid in vivo (transplanted pig kidney)
Method: Full information on donor and recipient pigs is given in Example 5. […] Four recipient pigs were transplanted with biotin-PEG-phospholipid-treated kidneys. Their native kidneys were not removed and remained in the animals throughout the study. The four recipient pigs were euthanized after 12, 24, 48 and 72 h, respectively and biopsies were taken at euthanasia from the biotin-PEG-phospholipid treated kidney and one of the native kidneys. Frozen sections (4 μm thickness) were incubated in Alexa488-streptavidin (GE Healthcare, 1:500) at RT for 10 min. The sections were analyzed by laser-scanning confocal microscopy (LSM510, META, Carl Zeiss, Germany).
Frozen sections (4 μm thickness) of kidneys treated with biotin-PEG-phospholipid and control kidneys were incubated in Alexa488-streptavidin (GE Healthcare, 1:500) at RT for 10 min. The sections were analyzed by laser-scanning confocal microscopy (LSM510, META, Carl Zeiss, Germany).

[2] = test system: porcine kidney transplant, ischemia reperfusion injury; assay: Porcine clinical-like allogeneic survival transplantation model (CLSM); assay type: in vivo, pig; settings: not shown
Text: During and after surgery, systemic blood was collected for up to 4 days and analyzed for creatinine, sodium, potassium and phosphate (Section for Clinical Chemistry, Uppsala University Hospital).
These studies were approved by the Ethics Committee for Animal Experimentation, Uppsala, Sweden, Dnr C123/14. For each of these studies (SM and CLSM) five donor pigs and 10 recipient pigs of both sexes were used. All pigs were certified SPF pigs (Yorkshire×Hampshire) and bred at Lövsta University herd, SLU, Sweden. At arrival to SLU the pigs were 8 weeks old.
For the SM study, the pigs were selected after typing for Swine Leucocyte Antigen (SLA) class 1 in the following manner: the donor pigs were obtained from two litters and not related to any of the recipients. The recipient pigs were siblings, matched in pairs according to SLA class 1 (see below). For the CLSM study, all recipient pigs were siblings and not related to the donors, but these the pigs were not SLA-typed.
CLSM study: In this study, the retrieval of the kidney resembled the standard operative procedure of human organ procurement. Each donor was randomized to either PEG-phospholipid or HTK treatment. […]
The recipient pigs underwent allogeneic single kidney transplantation. […] By using a urine stick the sample was analyzed for proteinurea and hematuria. […]

CD31 = assay: Masking of antigens on HUVECs by coating with PEG-phospholipid, flow cytometry; assay type: cell-based, human; settings: HUVEC, 0.5 mg/ml, 45 mins RT
Method: (§1) One hundred μL of HUVEC cell pellet (5×10^4 cells) were incubated in 0.5 mg/ml of PEG-phospholipid solution (final concentration, polyethylene glycol-phospholipid with PEG of 5 kDa (PEG-phospholipid) in PBS, SUNBRIGHT® PP-050CN, N-(methylpolyoxyethylene oxycarbonyl)-1,2-dipalmitoyl-sn-glycero-3-phosphoethanolamine, sodium salt, NOF Corp., Japan) or PBS for 45 mins at RT. Then, the cells were incubated with 5 μg/mL of FITC labelled antibodies for 15 min at RT: CD31 antibody (5 μg/ml) or isotype control Ab-FITC (BD biosciences) or with rabbit anti von Willebrand Factor (vWF) with rabbit IgG as control, both visualized by Alexa 488 goat anti-rabbit antibodies as given in Table 1.
(§2) Post analysis processing was carried out in FlowJo.

[3] = test system: von Willebrand Factor (vWF); assay: as above; assay type: cell-based, human; settings: HUVEC, 0.5 mg/ml, 45 mins RT
Method: as §1, §2

Substance: N-(methylpolyoxyethylene oxycarbonyl)-1,2-dipalmitoyl-sn-glycero-3-phosphoethanolamine [PEG-phospholipid]
- binding capacity of anti-blood group B antigen-antibody (blood group B antigen): effectively reduced; also recorded: effective masking
- t½ of PEG-phospholipid calculated from fluorescence images ([1]; pig kidney, biotin-labeled PEG-phospholipid, 95% confidence interval 8-26): 14 h
- systemic leakage of PEG-phospholipid (autologous kidneys of the recipient) ([1]; reliably detected only after 1 hour): very low
- complement and coagulation markers (C3a, sC5b-9, TAT, C3b) ([2]; displaying lower values): confirmed these results
- cytokines / systemic inflammation [2]: confirmed these results
- masking of CD31 (CD31): < 20%
- detection of vWF [3]: did not decrease
